Article PMC8514817, “De Novo Design of Antimicrobial Peptides With a Special Charge Pattern and Their Application in Combating Plant Pathogens” (Frontiers in Plant Science, 2021)
Read-outs that look alike come from different tables or passages of the source.

Columns and labels:
Botrytis cinerea (Bc) [1] = assay: Plant disease response, Bc infection of tomato L390 leaves; type: in vivo, Solanum lycopersicum; details: crude peptide 16 μg/ml mixed with Bc spores (10^4 spores/ml), 47–70 h post-inoculation, vs water
Cgl FST02 = details: for antimicrobial activity: at the highest peptide concentration (32μg/ml) tested, data not shown, before the tests in minimal media
Xoo Xoo28 [2] = details: Table 4, rich medium, up to 32 μg/ml; for MIC: 48 h, no visible growth; for MBC: spotted on rich agar 48 h, no colony
Rs Pss4 = details: Table 5, minimal medium, crude peptides, up to 32 μg/ml
Bc = details: for antimicrobial activity: at the highest peptide concentration (32μg/ml) tested, data not shown, before the tests in minimal media
[3] = tested on: Ralstonia solanacearum (Rs); type: cell-based; details: at the highest peptide concentration (32μg/ml) tested; data not shown; before the tests in minimal media
Xev Xvt28 [4] = details: 48 h
Eco = type: cell-based, Escherichia coli
Rs = type: cell-based, Ralstonia solanacearum; details: crude peptide, 5 μl of 64 μg/ml in 20 μl, bacteria OD600=0.4 in water, 2 h, confocal microscopy
Eco DH5α [5] = details: 48 h
[6] = tested on: Pectobacterium carotovorum subsp. carotovorum (Pcc); assay: Plant disease response, Pcc infection of tomato L390 leaves; type: in vivo, Solanum lycopersicum
Ech = details: up to 32 μg/ml
Botrytis cinerea (Bc) [7] = assay: Plant disease response, Bc infection of Arabidopsis Col0 leaves; type: in vivo, Arabidopsis thaliana
Pst DC3000 = details: Table 4, rich medium, up to 32 μg/ml; for MIC: 48 h, no visible growth; for MBC: spotted on rich agar 48 h, no colony
Pss B728a = details: Table 4, rich medium, up to 32 μg/ml; for MIC: 48 h, no visible growth; for MBC: spotted on rich agar 48 h, no colony
[8] = tested on: Pectobacterium carotovorum subsp. carotovorum (Pcc); assay: Plant disease response, Pcc infection of Arabidopsis Col0 leaves; type: in vivo, Arabidopsis thaliana; details: crude peptide 16 μg/ml mixed with Pcc, wounded leaves of Arabidopsis Col0, 16–28 h post-inoculation, vs water
Rs Pss190 = details: Table 5, minimal medium, crude peptides, up to 32 μg/ml
Eco DH5α [9] = tested on: Eco DH5α
Xev Xvt28 [10] = tested on: Xev Xvt28
Xcc Xcc17 [11] = details: Table 4, rich medium, up to 32 μg/ml
Atu C58C1 [12] = details: Table 4, rich medium, up to 32 μg/ml
Atu C58C1 [13] = type: cell-based, Agrobacterium tumefaciens; details: rich medium, HPLC-purified peptides, peptide 0, 2, 10, 20 μg/ml, 24 h, OD600; lowest concentration inhibiting 50% of growth
[14] = Circular dichroism, secondary structure deconvolution; type: physicochemical; details: CD, structural deconvolution; for α-helix content: dissolved in water
Procedure: The peptides were dissolved in water to make a stock solution and then diluted in the solution that contained different concentrations of trifluoroethanol (TFE) to the desired final TFE concentration. The circular dichroism (CD) spectra between 190 and 250nm were recorded on a J-815 CD spectrometer (JASCO, Japan). The bandwidth was 2nm, and the step resolution was 0.05nm. Each sample was scanned twice, and the average of the two measurements was smoothed using the Savitzky-Golay method to get the final CD spectrum. The CD spectra were deconvoluted using the CD Multivariate SSE software version 2.0.1 (JASCO, Japan).

Xoo Xoo28 [15] = type: cell-based, Xanthomonas oryzae pv. oryzae; details: rich medium, HPLC-purified peptides, peptide 0, 2, 10, 20 μg/ml, 24 h, OD600; lowest concentration inhibiting 50% of growth
Xcc Xcc17 [16] = type: cell-based, Xanthomonas campestris pv. campestris; details: rich medium, HPLC-purified peptides, peptide 0, 2, 10, 20 μg/ml, 24 h, OD600; lowest concentration inhibiting 50% of growth
[17] = Table 5, minimal (CD) medium, crude peptides, spores, 96 h, up to 32 μg/ml
[18] = Table 5, minimal (CD) medium, crude peptides, spotted on PD plate 24~72 h, up to 32 μg/ml
[19] = Table 4, rich medium, 48 h, no visible growth, up to 32 μg/ml
[20] = spotted on rich agar 48 h, no colony

Ac-WKKLKKLLKKLKKL-NH2 [pepD2]
development of the lesion caused by Bc, tomato (Botrytis cinerea (Bc) [1]): did not detectably inhibit the diseases
MIC (Cgl FST02; [17]): – (“–” indicates that no antimicrobial activity was detected in minimal media at the highest concentration (32μg/ml) of crude peptides that was tested in this study.)
MBC/MFC (Cgl FST02; [18]): – (“–” indicates that no antimicrobial activity was detected in minimal media at the highest concentration (32μg/ml) of crude peptides that was tested in this study.)
antimicrobial activity (Cgl FST02): did not have detectable antimicrobial activity
MIC (Xoo Xoo28 [2]): 4 µg/mL
MBC (Xoo Xoo28 [2]): 8 µg/mL
MIC (Rs Pss4; 96 h): – (“–” indicates that no antimicrobial activity was detected in minimal media at the highest concentration (32μg/ml) of crude peptides that was tested in this study.)
MBC/MFC (Rs Pss4; spotted on rich agar 48 h): – (“–” indicates that no antimicrobial activity was detected in minimal media at the highest concentration (32μg/ml) of crude peptides that was tested in this study.)
MIC (Bc; [17]): – (“–” indicates that no antimicrobial activity was detected in minimal media at the highest concentration (32μg/ml) of crude peptides that was tested in this study.)
MBC/MFC (Bc; [18]): – (“–” indicates that no antimicrobial activity was detected in minimal media at the highest concentration (32μg/ml) of crude peptides that was tested in this study.)
antimicrobial activity (Bc): did not have detectable antimicrobial activity
antimicrobial activity [3]: did not have detectable antimicrobial activity
MBC (Xev Xvt28 [4]): 4 µg/mL
MIC (Xev Xvt28 [4]): 4 µg/mL
membranolytic effect (SYTOX Green staining) (Eco): significant membranolytic effect
membranolytic effect (SYTOX Green staining) (Rs): significant membranolytic effect
MBC (Eco DH5α [5]): 8 µg/mL
Plant response to infection with Pcc, Tomato (class and significance; number of batches in parentheses) ([6]; crude peptide 16 µg/mL, lesion diameter 16–28 h post-inoculation, Student's t-test vs water-treated): ns(3)
size of disease lesions caused by Pcc, tomato ([6]; crude peptide 16 μg/ml mixed with Pcc, detached wounded tomato L390 leaves, 16–28 h post-inoculation, vs water): did not detectably inhibit the diseases
MIC (Pcc; [19]): 8 µg/mL
MIC (Pcc; Table 5, minimal medium, crude peptides, 96 h, up to 32 μg/ml): 8 µg/mL
MBC/MFC (Pcc; Table 5, minimal medium, crude peptides, spotted on rich agar 48 h, up to 32 μg/ml): 8 µg/mL
MIC (Pcc; Table 7, rich media, 48 h, up to 32 μg/ml): 4 µg/mL
MBC (Pcc; Table 7, rich media, spotted on rich agar 48 h, up to 32 μg/ml): 8 µg/mL
MIC (Ech; Table 5, minimal medium, crude peptides, 96 h): 16 µg/mL
MBC/MFC (Ech; Table 5, minimal medium, crude peptides, spotted on rich agar 48 h): 16 µg/mL
MIC (Ech; Table 7, rich media, 48 h): 32 µg/mL
MBC (Ech; Table 7, rich media, spotted on rich agar 48 h): 32 µg/mL
Plant response to infection with Bc, Arabidopsis (class and significance; number of batches in parentheses) (Botrytis cinerea (Bc) [7]; crude peptide 16 µg/mL, lesion diameter 47–70 h post-inoculation, Student's t-test vs water-treated): ns(2 )
development of the lesion caused by Bc, Arabidopsis (Botrytis cinerea (Bc) [7]; crude peptide 16 μg/ml mixed with Bc spores (10^5 spores/ml), Arabidopsis Col0 leaves, 47–70 h post-inoculation, vs water): did not detectably inhibit the diseases
MIC (Pst DC3000): 4 µg/mL
MBC (Pst DC3000): 8 µg/mL
MIC (Pss B728a): 8 µg/mL
MBC (Pss B728a): 16 µg/mL
size of disease lesions caused by Pcc, Arabidopsis [8]: did not detectably inhibit the diseases
MIC (Rs Pss190; 96 h): – (“–” indicates that no antimicrobial activity was detected in minimal media at the highest concentration (32μg/ml) of crude peptides that was tested in this study.)
MBC/MFC (Rs Pss190; spotted on rich agar 48 h): – (“–” indicates that no antimicrobial activity was detected in minimal media at the highest concentration (32μg/ml) of crude peptides that was tested in this study.)

Ac-WKKLKKLLKKLKKLLKKL-NH2 [pepD]
antimicrobial activity (Cgl FST02): did not have detectable antimicrobial activity
MIC (Xoo Xoo28 [2]): 4 µg/mL
MBC (Xoo Xoo28 [2]): 4 µg/mL
IC50 (Eco DH5α [9]; DH5α, 24 h): 10 µg/mL
antimicrobial activity (Bc): did not have detectable antimicrobial activity
antimicrobial activity [3]: did not have detectable antimicrobial activity
IC50 (Xev Xvt28 [10]; 24 h): 4 µg/mL
MBC (Xev Xvt28 [4]): 16 µg/mL
MIC (Xev Xvt28 [4]): 4 µg/mL
MBC (Eco DH5α [5]): 8 µg/mL
MIC (Eco DH5α [5]): 8 µg/mL
MBC (Pcc): – (key: “–” indicates that no antimicrobial activity was detected in rich media at the highest peptide concentration (32μg/ml) that was tested in this study.)
MIC (Pcc; [19]): 32 µg/mL
MIC (Pst DC3000): 16 µg/mL
MBC (Pst DC3000): 32 µg/mL
MIC (Xcc Xcc17 [11]; 48 h, no visible growth): 2 µg/mL
MBC (Xcc Xcc17 [11]; [20]): 8 µg/mL
MIC (Pss B728a): 32 µg/mL
MBC (Pss B728a): – (“–” indicates that no antimicrobial activity was detected in rich media at the highest peptide concentration (32μg/ml) that was tested in this study.)
MIC (Atu C58C1 [12]; 48 h, no visible growth): 4 µg/mL
MBC (Atu C58C1 [12]; [20]): – (“–” indicates that no antimicrobial activity was detected in rich media at the highest peptide concentration (32μg/ml) that was tested in this study.)

Ac-WKLLKKLLKLLKKLLKLL-NH2 [pepB]
IC50 (Atu C58C1 [13]): – (“–” indicates that no antimicrobial activity was detected in rich media at the highest peptide concentration (20μg/ml) that was tested in this study.)
α-helix formation ([14]; 10% TFE): 90%
α-helix content [14]: about 25%
IC50 (Eco DH5α [9]): – (key: “–” indicates that no antimicrobial activity was detected in rich media at the highest peptide concentration (20μg/ml) that was tested in this study.)
IC50 (Xev Xvt28 [10]; 24 h): 20 µg/mL
IC50 (Xoo Xoo28 [15]): – (“–” indicates that no antimicrobial activity was detected in rich media at the highest peptide concentration (20μg/ml) that was tested in this study.)
IC50 (Xcc Xcc17 [16]): – (“–” indicates that no antimicrobial activity was detected in rich media at the highest peptide concentration (20μg/ml) that was tested in this study.)

Ac-WKLLKLLLKLLKLLLKLL-NH2 [pepA, de novo designed amphipathic peptide, 28% positively charged residues, 90° distribution]
IC50 (Atu C58C1 [13]): – (“–” indicates that no antimicrobial activity was detected in rich media at the highest peptide concentration (20μg/ml) that was tested in this study.)
α-helix content [14]: over 90%
IC50 (Eco DH5α [9]): – (key: “–” indicates that no antimicrobial activity was detected in rich media at the highest peptide concentration (20μg/ml) that was tested in this study.)
IC50 (Xev Xvt28 [10]): – (key: “–” indicates that no antimicrobial activity was detected in rich media at the highest peptide concentration (20μg/ml) that was tested in this study.)
IC50 (Xoo Xoo28 [15]): – (“–” indicates that no antimicrobial activity was detected in rich media at the highest peptide concentration (20μg/ml) that was tested in this study.)
IC50 (Xcc Xcc17 [16]): – (“–” indicates that no antimicrobial activity was detected in rich media at the highest peptide concentration (20μg/ml) that was tested in this study.)
